Experimental findings from the NIST ThermoML archive (doi:10.1021/je049908l) are described below.

The structures appear in SMILES notation. Numbers after ± are expanded uncertainties.

For series [1] the following is noted: Crystal; DTA.
Series [2] can be described thus: Molar enthalpy of transition or fusion. The conditions noted are these: Crystal; DSC.

Regarding `NC(C(=O)O)c1ccc(O)cc1.O=S(=O)(O)O` (racemic) [DL-p-hydroxyphenylglycine sulfate], the Normal melting temperature in series [1] worked out at 71.80 ± 2.1 °C. In addition, the “Molar enthalpy of transition or fusion” value in series [2] is 10.7 ± 0.693 kcal/mol.
